Key:
Experiment in all cases: Test D pre-/postemergence herbicide test
[1] = system: pigweed; assay type: in vivo, Amaranthus retroflexus; conditions: for Plant response rating, Pigweed: Preemergence, scale 0 to 100 (0 no effect, 100 complete control); for Plant response rating: Postemergence, Pigweed, scale 0 to 100
Description: (§1) Seeds of plant species selected from bluegrass (annual bluegrass, Poa annua), blackgrass (Alopecurus myosuroides), canarygrass (littleseed canarygrass, Phalaris minor), chickweed (common chickweed, Stellaria media), galium (catchweed bedstraw, Galium aparine), bromegrass, downy (downy bromegrass, Bromus tectorum), field poppy (Papaver rhoeas), field violet (Viola arvensis), foxtail, green (green foxtail, Setaria viridis), deadnettle (henbit deadnettle, Lamium amplexicaule), ryegrass, Italian (Italian ryegrass, Lolium multiflorum), kochia (Kochia scoparia), lambsquarters (Chenopodium album), oilseed rape (Brassica napus), pigweed (Amaranthus retroflexus), chamomile (scentless chamomile, Matricaria inodora), Russian thistle (Salsola kali), speedwell (bird's-eye speedwell, Veronica persica), barley, spring (spring barley, Hordeum vulgare), wheat, spring (spring wheat, Triticum aestivum), buckwheat, wild (wild buckwheat, Polygonum convolvulus), mustard, wild (wild mustard, Sinapis arvensis), oat, wild (wild oat, Avena fatua), radish, wild (wild radish, Raphanus raphanistrum), […]), barley, winter (winter barley, Hordeum vulgare), and wheat, winter (winter wheat, Triticum aestivum) were planted into a silt loam soil and treated preemergence with test chemicals formulated in a non-phytotoxic solvent mixture which included a surfactant. At the same time, these species were planted in pots containing Redi-Earth® planting medium (Scotts Company, 14111 Scottslawn Road, Marysville, Ohio 43041) comprising spaghnum peat moss, vermiculite, wetting agent and starter nutrients and treated with postemergence applications of the test chemicals formulated in the same manner. Plants ranged in height from 2 to 18 cm (1- to 4-leaf stage). Treated plants and controls were maintained in a controlled growth environment for 7 to 21 days after which time all species were compared to controls and visually evaluated. Plant response ratings, summarized in Table D, are based on a scale of 0 to 100 where 0 is no effect and 100 is complete control. A dash (-) response means no test result.

[2] = system: blackgrass; assay type: in vivo, Alopecurus myosuroides; conditions: for Plant response rating, Blackgrass: scale 0 to 100 (0 no effect, 100 complete control); for Plant response rating: Blackgrass, scale 0 to 100
Description: as §1

[3] = system: bluegrass; assay type: in vivo, Poa annua; conditions: for Plant response rating, Bluegrass: scale 0 to 100 (0 no effect, 100 complete control); for Plant response rating: Bluegrass, scale 0 to 100
Description: as §1

[4] = system: mustard, wild; assay type: in vivo, Sinapis arvensis; conditions: for Plant response rating, Mustard, Wild: scale 0 to 100 (0 no effect, 100 complete control); for Plant response rating: Mustard, Wild, scale 0 to 100
Description: as §1

[5] = system: buckwheat, wild; assay type: in vivo, Polygonum convolvulus; conditions: for Plant response rating, Buckwheat, Wild: scale 0 to 100 (0 no effect, 100 complete control); for Plant response rating: Buckwheat, Wild, scale 0 to 100
Description: as §1

For `O=C1NCC(c2ccc(F)c(C(F)(F)F)c2)C1C(=O)Nc1cccc(F)c1F` (racemic) [Compound 77], the “Plant response rating, Pigweed” value ([1]; 62 g ai/ha) was 70, the “Plant response rating, Pigweed” value ([1]; 125 g ai/ha) was 80 and the “Plant response rating, Pigweed” value ([1]; 31 g ai/ha) was 25. For the same compound, the “Plant response rating, Pigweed” value ([1]; 250 g ai/ha) was 80, the “Plant response rating, Blackgrass” value ([2]; Preemergence, 62 g ai/ha) was 25 and the “Plant response rating, Blackgrass” value ([2]; Preemergence, 31 g ai/ha) was 10. The Plant response rating ([2]; Preemergence, 125 g ai/ha) was 40, the Plant response rating ([2]; Preemergence, 250 g ai/ha) was 65 and the “Plant response rating, Bluegrass” value ([3]; Preemergence, 62 g ai/ha) was 5. The “Plant response rating, Bluegrass” value ([3]; Preemergence, 31 g ai/ha) was 0, the Plant response rating ([3]; Preemergence, 125 g ai/ha) was 45 and the Plant response rating ([3]; Preemergence, 250 g ai/ha) was 55. The “Plant response rating, Mustard, Wild” value ([4]; Preemergence, 62 g ai/ha) was 20, the “Plant response rating, Mustard, Wild” value ([4]; Preemergence, 31 g ai/ha) was 0 and the Plant response rating ([4]; Preemergence, 125 g ai/ha) was 25. For the same compound, the Plant response rating ([4]; Preemergence, 250 g ai/ha) was 45, the “Plant response rating, Buckwheat, Wild” value ([5]; Preemergence, 62 g ai/ha) was 75 and the “Plant response rating, Buckwheat, Wild” value ([5]; Preemergence, 31 g ai/ha) was 0. It also gave a Plant response rating ([5]; Preemergence, 125 g ai/ha) of 55 and a Plant response rating ([5]; Preemergence, 250 g ai/ha) of 55.
`O=C1NCC(c2ccc(C(F)(F)F)cc2)C1C(=O)Nc1ccccc1F` (stereo not drawn) [Compound 231] gave a Plant response rating ([1]; 31 g ai/ha) of 20, a Plant response rating ([1]; 62 g ai/ha) of 35 and a Plant response rating ([1]; 125 g ai/ha) of 35. For the same compound, the Plant response rating ([1]; 250 g ai/ha) was 45, the “Plant response rating, Pigweed” value ([1]; 62 g ai/ha) was 50 and the “Plant response rating, Pigweed” value ([1]; 125 g ai/ha) was 60. The “Plant response rating, Pigweed” value ([1]; 31 g ai/ha) was 50, the “Plant response rating, Pigweed” value ([1]; 250 g ai/ha) was 80 and the Plant response rating ([2]; Postemergence, 31 g ai/ha) was 0. For the same compound, the Plant response rating ([2]; Postemergence, 62 g ai/ha) was 10, the Plant response rating ([2]; Postemergence, 125 g ai/ha) was 10 and the Plant response rating ([2]; Postemergence, 250 g ai/ha) was 20. The “Plant response rating, Blackgrass” value ([2]; Preemergence, 62 g ai/ha) was 0, the “Plant response rating, Blackgrass” value ([2]; Preemergence, 125 g ai/ha) was 15 and the “Plant response rating, Blackgrass” value ([2]; Preemergence, 31 g ai/ha) was 0. It also gave a Plant response rating ([2]; Preemergence, 250 g ai/ha) of 55, a Plant response rating ([3]; Postemergence, 31 g ai/ha) of 5 and a Plant response rating ([3]; Postemergence, 62 g ai/ha) of 10. For the same compound, the Plant response rating ([3]; Postemergence, 125 g ai/ha) was 10, the Plant response rating ([3]; Postemergence, 250 g ai/ha) was 10 and the “Plant response rating, Bluegrass” value ([3]; Preemergence, 62 g ai/ha) was 0. For the same compound, the “Plant response rating, Bluegrass” value ([3]; Preemergence, 125 g ai/ha) was 15, the “Plant response rating, Bluegrass” value ([3]; Preemergence, 31 g ai/ha) was 5 and the Plant response rating ([3]; Preemergence, 250 g ai/ha) was 25. For the same compound, the Plant response rating ([4]; Postemergence, 31 g ai/ha) was 35, the Plant response rating ([4]; Postemergence, 62 g ai/ha) was 65 and the Plant response rating ([4]; Postemergence, 125 g ai/ha) was 65. The Plant response rating ([4]; Postemergence, 250 g ai/ha) was 75, the “Plant response rating, Mustard, Wild” value ([4]; Preemergence, 62 g ai/ha) was 10 and the “Plant response rating, Mustard, Wild” value ([4]; Preemergence, 125 g ai/ha) was 0. For the same compound, the “Plant response rating, Mustard, Wild” value ([4]; Preemergence, 31 g ai/ha) was 0, the Plant response rating ([4]; Preemergence, 250 g ai/ha) was 15 and the Plant response rating ([5]; Postemergence, 31 g ai/ha) was 0. It also gave a Plant response rating ([5]; Postemergence, 62 g ai/ha) of 0, a Plant response rating ([5]; Postemergence, 125 g ai/ha) of 0 and a Plant response rating ([5]; Postemergence, 250 g ai/ha) of 0. The “Plant response rating, Buckwheat, Wild” value ([5]; Preemergence, 62 g ai/ha) was 0, the “Plant response rating, Buckwheat, Wild” value ([5]; Preemergence, 125 g ai/ha) was 0 and the “Plant response rating, Buckwheat, Wild” value ([5]; Preemergence, 31 g ai/ha) was 0. For the same compound, the Plant response rating ([5]; Preemergence, 250 g ai/ha) was 10.
